Measurements from US4382925A.
Values after ≈ are worked out from the molar mass of the structure shown. “Also recorded” adds a separate entry of the source. Where two headings read alike, the source gives them in different places.

Tests used:
vaccinia virus = experiment: microbe, parasite or virus in culture; assay type: cell-based; conditions: Orthopoxvirus vaccinia
[1] = test system: Herpes simplex-1 strain KOS; experiment: Inhibition of cytopathic effect of herpes simplex-1 virus strain KOS in PRK and HSF cell cultures (Test 1); assay type: cell-based; conditions: average of three experiments
[2] = test system: Herpes simplex-1 strain McIntyre; experiment: Inhibition of cytopathic effect of herpes simplex-1 virus strain McIntyre in PRK cell cultures (Test 1); assay type: cell-based; conditions: PRK cells, average of three experiments, read-out: ID50, Herpes simplex-1 strain McIntyre (PRK)
[3] = test system: Herpes simplex-1 strain F; experiment: Inhibition of cytopathic effect of herpes simplex-1 virus strain F in PRK cell cultures (Test 1); assay type: cell-based; conditions: PRK cells, average of three experiments, read-out: ID50, Herpes simplex-1 strain F (PRK)
[4] = test system: (Methyl-^3 H)TdR incorporation into cell DNA, PRK cell cultures; conditions: separate experiments reported by De Clercq et al., PNAS 76, 2947-2951 (1979); cited from earlier work
[5] = test system: (2-^14 C)UdR incorporation into cell DNA, PRK cell cultures; conditions: separate experiments reported by De Clercq et al., PNAS 76, 2947-2951 (1979); cited from earlier work
[6] = test system: herpes simplex-1 (strain KOS) virus; conditions: separate experiments, De Clercq et al., PNAS 1979; cited from earlier work
cell culture [7] = conditions: prior art literature; cited from earlier work
[8] = test system: herpes simplex-1 (strain KOS) virus; conditions: dose 10 μl/ml [sic]
[9] = Antimetabolic activity in PRK cell cultures: (methyl-^3 H)TdR incorporation into cell DNA (Test 3); assay type: cell-based; conditions: rabbit, PRK cells, read-out: ID50, (Methyl-^3 H)TdR incorporation into cell DNA
Procedure: (§1) To this end, the incorporation of certain radiolabelled DNA precursors into DNA of the cells, and the effect of 5-(2-halogenovinyl)-2'-deoxycytidines and related compounds thereon, was tested. The technique has been described by De Clercq et al in Biochemical Pharmacology, 26, 794-797 (1977) and by De Clercq et al in Molecular Pharmacology, 14, 422-430, (1978).
(§2) The DNA precursors as used were (methyl-^3 H), (2'-deoxythymidine ) (TdR), and (2-^14 C) (2'-deoxyuridine) (UdR).
(§3) The cells were exposed to 0.12 μCi:0.01 nmol (methyl-^3 H)TdR (per 10^5 cells) or 14 μCi/250 nmol (2-^14 C) UdR (per 10^5 cells) for 16 hours in the presence of varying concentrations of the compounds (ranging from 1 to 200 μg/ml). Incorporation of the radiolabelled precursor was then measured as described and the ID50 was determined. ID50 corresponds to the inhibitory dose-50, that is the concentration of compound required to inhibit incorporation of either (methyl-^3 H)TdR or (2-^14 C)UdR by 50%.

[10] = Antimetabolic activity in PRK cell cultures: (2-^14 C)UdR incorporation into cell DNA (Test 3); assay type: cell-based; conditions: rabbit, PRK cells, read-out: ID50, (2-^14 C)UdR incorporation into cell DNA
Procedure: as §1, §2, §3

herpes simplex virus [11] = experiment: Antiviral activity against herpes simplex virus in cell culture, overall statements; assay type: cell-based; conditions: in words
cell culture [12] = experiment: Toxicity in cell culture, overall statements; assay type: cell-based; conditions: in words
Procedure: as §3

[13] = test system: herpes simplex-1 (strain KOS) virus; experiment: Antiviral index in PRK cell cultures (Test 4); assay type: cell-based, herpes simplex-1 virus; conditions: ratio of ID50 for (2-^14 C)UdR incorporation to ID50 for herpes simplex-1 (strain KOS), PRK cells
Procedure: The antiviral index was determined as the ratio of ID50 for (2-^14 C)UdR incorporation into cell DNA to ID50 for herpes simplex-1 (strain KOS) virus replication (compare Tables 1 and 3).

herpes simplex virus [14] = conditions: De Clercq et al., PNAS 76, 2947-2951 (1979); cited from earlier work
[15] = HSF, read-out: ID50, Vaccinia (HSF)
[16] = PRK, read-out: ID50, Vaccinia (PRK)
[17] = HSF cells, read-out: ID50, Herpes simplex-1 strain KOS (HSF)
[18] = PRK cells, read-out: ID50, Herpes simplex-1 strain KOS (PRK)

Compound	IC50 (vaccinia virus; [15])	IC50 (vaccinia virus; [16])	IC50 [1, 17]	IC50 [1, 18]	IC50 [2]	IC50 [3]	ID50, (Methyl-^3 H)TdR incorporation into cell DNA (data in parentheses) [4]	ID50, (2-^14 C)UdR incorporation into cell DNA (data in parentheses) [5]	Antiviral index (numbers in parentheses) [6]	toxicity in cell culture, reported (cell culture [7])	Reduction in virus yield as compared to control (untreated virus-infected) cell cultures ([8]; 1 day after infection)	Reduction in virus yield as compared to control (untreated virus-infected) cell cultures ([8]; 2 days after infection)	Reduction in virus yield as compared to control (untreated virus-infected) cell cultures ([8]; 3 days after infection)	IC50 at 16 h [9]	IC50 at 16 h [10]	specific antiviral activity against herpes simplex virus (herpes simplex virus [11])	toxicity in cell culture (cell culture [12])	Antiviral index [13]	antiviral activity against herpes simplex virus, reported (herpes simplex virus [14])
O=c1[nH]c(=O)n([C@H]2C[C@H](O)[C@@H](CO)O2)cc1I [5-iodo-2'-deoxyuridine]	0.2 mg/L (≈ 0.565 µM)	0.02 mg/L (≈ 0.0565 µM)	0.2 mg/L (≈ 0.565 µM)	0.1 mg/L (≈ 0.282 µM)	0.15 mg/L (≈ 0.424 µM)	0.2 mg/L (≈ 0.565 µM)	2.5 mg/L (≈ 7.06 µM)	1.2 mg/L (≈ 3.39 µM)	12	cannot be neglected	4.0 log10 PFU/ml	2.6 log10 PFU/ml	1.9 log10 PFU/ml						
Nc1nc(=O)n([C@H]2C[C@H](O)[C@@H](CO)O2)cc1/C=C/Br [E-5-(2-bromovinyl)-2'-deoxycytidine]	2 mg/L (≈ 6.02 µM)	10 mg/L (≈ 30.1 µM)	0.07 mg/L (≈ 0.211 µM)	0.07 mg/L (≈ 0.211 µM)	0.07 mg/L (≈ 0.211 µM)	0.1 mg/L (≈ 0.301 µM)					3.8 log10 PFU/ml	2.9 log10 PFU/ml	2.2 log10 PFU/ml	> 200 mg/L	> 200 mg/L	excellent and highly specific antiviral activity against herpes simplex virus; also recorded: very specific towards herpes simplex virus	apparently nil; also recorded: apparent lack of toxicity in cell culture		
O=c1[nH]c(=O)n([C@H]2C[C@H](O)[C@@H](CO)O2)cc1/C=C/Br [E-5-(2-bromovinyl)-2'-deoxyuridine]	0.7 mg/L (≈ 2.1 µM)	7 mg/L (≈ 21 µM)	0.01 mg/L (≈ 0.03 µM)	0.007 mg/L (≈ 0.021 µM)	0.01 mg/L (≈ 0.03 µM)	0.01 mg/L (≈ 0.03 µM)	70 mg/L (≈ 210 µM)	70 mg/L (≈ 210 µM)	10000	low toxicity in cell culture				100 mg/L (≈ 300 µM)	100 mg/L (≈ 300 µM)			14300	specific antiviral activity against herpes simplex virus
Nc1nc(=O)n([C@H]2C[C@H](O)[C@@H](CO)O2)cc1/C=C/I [E-5-(2-iodovinyl)-2'-deoxycytidine]	7 mg/L (≈ 18.5 µM)	10 mg/L (≈ 26.4 µM)	0.07 mg/L (≈ 0.185 µM)	0.1 mg/L (≈ 0.264 µM)	0.07 mg/L (≈ 0.185 µM)	0.2 mg/L (≈ 0.527 µM)					4.3 log10 PFU/ml	2.8 log10 PFU/ml	2.0 log10 PFU/ml	> 200 mg/L	> 200 mg/L	excellent and highly specific antiviral activity against herpes simplex virus; also recorded: very specific towards herpes simplex virus	apparently nil; also recorded: apparent lack of toxicity in cell culture		
O=c1[nH]c(=O)n([C@H]2C[C@H](O)[C@@H](CO)O2)cc1/C=C/I [E-5-(2-iodovinyl)-2'-deoxyuridine]	1 mg/L (≈ 2.63 µM)	10 mg/L (≈ 26.3 µM)	0.02 mg/L (≈ 0.0526 µM)	0.01 mg/L (≈ 0.0263 µM)	0.01 mg/L (≈ 0.0263 µM)	0.01 mg/L (≈ 0.0263 µM)	70 mg/L (≈ 184 µM)	70 mg/L (≈ 184 µM)	7000	low toxicity in cell culture				80 mg/L (≈ 210 µM)	150 mg/L (≈ 395 µM)			15000	specific antiviral activity against herpes simplex virus
